From ChEMBL document CHEMBL4325896, “The potential role of tubeimosides in cancer prevention and treatment” (Eur J Med Chem, 2019)
≈ marks a conversion by molar mass, not a printed value.

Tests used:
[1] = Antiproliferative activity against human PGCL3 cells after 24 hrs by MTT assay; type: functional, cell-based
[2] = Antiproliferative activity against human PGCL3 cells after 48 hrs by MTT assay; type: functional, cell-based
[3] = Elimination half life in Sprague-Dawley rat at 5 mg/kg, iv by LC-MS analysis; type: ADME, organism-based; settings: in vivo
[4] = Half life in Sprague-Dawley rat at 50 mg/kg, po by HPLC-DAD-IT-TOF-MS analysis; type: ADME, organism-based; settings: in vivo
HUVEC [5] = test: Antiproliferative activity against HUVEC after 72 hrs; type: functional, cell-based; settings: Homo sapiens
JEG-3 = test: Antiproliferative activity against human JEG3 cells after 24 hrs by MTT assay; type: functional, cell-based; settings: JEG-3, 24 h
[6] = Tmax in Sprague-Dawley rat at 50 mg/kg, po by LC-MS analysis; type: ADME, organism-based; settings: in vivo
T-24 = test: Antiproliferative activity against human T24 cells after 24 hrs by MTT assay; type: functional, cell-based; settings: T-24, 24 h
NCI-H460 [7] = test: Antiproliferative activity against human NCI-H460 cells after 9 hrs by MTT assay; type: functional, cell-based; settings: NCI-H460, 9 h
HeLa [8] = test: Antiproliferative activity against human HeLa cells after 72 hrs by MTT assay; type: functional, cell-based
NCI-H460 [9] = test: Antiproliferative activity against human NCI-H460 cells after 24 hrs by WST-1 assay; type: functional, cell-based; settings: NCI-H460, 24 h
[10] = Oral bioavailability in Sprague-Dawley rat at 50 mg/kg by LC-MS analysis; type: ADME, organism-based; settings: in vivo
[11] = AUC (0 to 24 hrs) in Sprague-Dawley rat at 50 mg/kg, po by HPLC-DAD-IT-TOF-MS analysis; type: ADME, organism-based; parameters: dose 50 mg/kg, time < 24 hr, route oral; settings: in vivo
HUVEC [12] = test: Antimigratory activity against HUVEC at 20 umol/L after 24 hrs relative to control; type: functional, Homo sapiens
[13] = Elimination half life in ICR mouse at 5 mg/kg, iv by UPLC-MS/MS analysis; type: ADME, organism-based; settings: in vivo, read-out: beta t1/2 (converted)
[14] = Antiproliferative activity against mouse eEND.2 cells after 24 hrs by WST-1 assay; type: cell-based
HUVEC [15] = test: Antiproliferative activity against HUVEC after 48 hrs; type: functional, cell-based; settings: Homo sapiens
[16] = Toxicity in ip dosed ICR mouse; type: organism-based; settings: in vivo
[17] = Cmax in Sprague-Dawley rat at 50 mg/kg, po by HPLC-DAD-IT-TOF-MS analysis; type: ADME, organism-based; parameters: dose 50 mg/kg, route oral; settings: in vivo
[18] = Antiproliferative activity against human PGCL3 cells after 72 hrs by MTT assay; type: functional, cell-based
[19] = MRT (0 to infinity) in Sprague-Dawley rat at 50 mg/kg, po by HPLC-DAD-IT-TOF-MS analysis; type: ADME, organism-based; settings: in vivo
ECa-109 cell line [20] = test: Antiproliferative activity against human EC109 cells after 48 hrs by MTT assay; type: functional, cell-based; settings: ECa-109, 48 h
[21] = Elimination half life in ICR mouse at 20 mg/kg, po by UPLC-MS/MS analysis; type: ADME, organism-based; settings: in vivo, read-out: beta t1/2 (converted)
PC-3 = test: Antiproliferative activity against human PC3 cells after 24 hrs by MTT assay; type: functional, cell-based; settings: PC-3, 24 h
HUVEC [22] = test: Antiproliferative activity against HUVEC after 24 hrs; type: functional, cell-based; settings: Homo sapiens
HeLa [23] = test: Cytotoxicity against human HeLa cells after 24 hrs by MTT assay; type: functional, cell-based
[24] = MRT (0 to 24 hrs) in Sprague-Dawley rat at 50 mg/kg, po by HPLC-DAD-IT-TOF-MS analysis; type: ADME, organism-based; settings: in vivo
HeLa [25] = test: Antiproliferative activity against human HeLa cells after 24 hrs by MTT assay; type: functional, cell-based
HeLa [26] = test: Antiproliferative activity against human HeLa cells after 48 hrs by MTT assay; type: functional, cell-based
[27] = Tmax in Sprague-Dawley rat at 50 mg/kg, po by HPLC-DAD-IT-TOF-MS analysis; type: ADME, organism-based; settings: in vivo
ECa-109 cell line [28] = test: Antiproliferative activity against human EC109 cells after 24 hrs by MTT assay; type: functional, cell-based; settings: ECa-109, 24 h
[29] = Oral bioavailability in ICR mouse at 20 mg/kg by UPLC-MS/MS analysis; type: ADME, organism-based; settings: in vivo
[30] = AUC (0 to infinity) in Sprague-Dawley rat at 50 mg/kg, po by HPLC-DAD-IT-TOF-MS analysis; type: ADME, organism-based; parameters: dose 50 mg/kg, time infinity, route oral; settings: in vivo
DU-145 = test: Antiproliferative activity against human DU145 cells after 24 hrs by MTT assay; type: functional, cell-based; settings: DU-145, 24 h
[31] = Volume of distribution at terminal phase in Sprague-Dawley rat at 5 mg/kg, iv by LC-MS analysis; type: ADME, organism-based; settings: in vivo
SK-OV-3 = test: Antiproliferative activity against human SKOV3 cells after 24 hrs by MTT assay; type: functional, cell-based; settings: SK-OV-3, 24 h
[32] = Cmax in Sprague-Dawley rat at 50 mg/kg, po by LC-MS analysis; type: ADME, organism-based; parameters: dose 50 mg/kg, route oral; settings: in vivo
[33] = Antiproliferative activity against human A2780DDP cells after 24 hrs; type: functional, cell-based
NCI-H1299 = test: Antiproliferative activity against human NCI-H1299 cells after 48 hrs by CCK-8 assay; type: functional, cell-based; settings: NCI-H1299, 48 h
A549 = test: Antiproliferative activity against human A549 cells after 72 hrs by MTS assay; type: functional, cell-based; settings: A549, 72 h
PC-9 = test: Antiproliferative activity against human PC9 cells after 72 hrs by MTS assay; type: functional, cell-based; settings: PC-9, 72 h
[34] = Antiproliferative activity against human A2780DDP cells after 12 hrs; type: functional, cell-based
[35] = Antiproliferative activity against human A2780DDP cells after 48 hrs; type: functional, cell-based
HepG2 [36] = test: Antiproliferative activity against human HepG2 cells after 24 hrs by MTT assay; type: functional, cell-based; settings: HepG2, 24 h
HepG2 [37] = test: Antiproliferative activity against human HepG2 cells; type: functional, cell-based

C[C@@H]1O[C@H]2O[C@H]3[C@@H](OC[C@H](O)[C@@H]3O)OC(=O)[C@]34CCC(C)(C)C[C@H]3C3=CC[C@@H]5[C@@]6(C)C[C@H](O)[C@H](O[C@@H]7O[C@H](CO)[C@@H](O)[C@H](O)[C@H]7O[C@@H]7OC[C@H](OC(=O)C[C@](C)(O)CC(=O)O[C@@H]1[C@@H](O[C@@H]1OC[C@@H](O)[C@H](O)[C@H]1O)[C@H]2O)[C@H](O)[C@H]7O)[C@@](C)(CO)[C@@H]6CC[C@@]5(C)[C@]3(C)CC4
IC50 [1]: 15.7 µM | IC50 [2]: 14.2 µM | beta t1/2 [3]: 6.7 h | t1/2 [4]: 4.6 h | IC50 (HUVEC [5]): 17.9 µM | IC50 (JEG-3): 8.5 µM | Tmax [6]: 2.75 h | IC50 (T-24): 20 µM | IC50 (NCI-H460 [7]): 20 µM | IC50 (HeLa [8]): 17.1 µM | IC50 (NCI-H460 [9]): 23.3 µM | bioavailability [10]: 0.23% | AUC(0-t) at 24 h [11]: 8800 ng·h/mL | Activity (HUVEC [12]): 58.4% | half-life [13]: 6.8 h | IC50 [14]: 12 µM | IC50 (HUVEC [15]): 21.4 µM | LD50 [16]: 18.7 mg/kg | Cmax [17]: 1342 ng/mL | IC50 [18]: 13.3 µM | MRT inf [19]: 9.16 h | IC50 (ECa-109 cell line [20]): 35 µM | half-life [21]: 2.3 h | IC50 (PC-3): 20 µM | IC50 (HUVEC [22]): 24.2 µM | IC50 (HeLa [23]): 25 µM | MRT last [24]: 7.02 h | IC50 (HeLa [25]): 34.8 µM | IC50 (HeLa [26]): 27.1 µM | Tmax [27]: 2.85 h | IC50 (ECa-109 cell line [28]): 45 µM | bioavailability [29]: 1% | AUC [30]: 9900 ng·h/mL | IC50 (DU-145): 10 µM | Vbeta [31]: 0.106 L/kg | IC50 (SK-OV-3): 16 µM | Cmax [32]: 675 ng/mL | IC50 [33]: 6 µM | IC50 (NCI-H1299): 10 µM | IC50 (A549): 12.3 µM | IC50 (PC-9): 10.2 µM | IC50 [34]: 3 µM | IC50 [35]: 12 µM | IC50 (HepG2 [36]): 15.5 to 20 µM

C[C@@H]1O[C@H]2O[C@H]3[C@@H](OC[C@H](O)[C@@H]3O)OC(=O)[C@]34CCC(C)(C)C[C@H]3C3=CC[C@@H]5[C@@]6(C)C[C@H](O)[C@H](O[C@@H]7O[C@H](CO)[C@@H](O)[C@H](O)[C@H]7O[C@@H]7OC[C@H](OC(=O)C[C@](C)(O)CC(=O)O[C@@H]1[C@@H](O[C@@H]1OC[C@@H](O)[C@H](O)[C@H]1O)[C@H]2O)[C@H](O)[C@H]7O)[C@@](C)(CO)[C@@H]6CC[C@@]5(C)[C@]3(C)C[C@H]4O
LD50 [16]: 21 mg/kg | IC50 (HepG2 [37]): 4.05 µg/mL (≈ 3.03 µM)

C[C@@H]1O[C@H]2O[C@H]3[C@@H](OC[C@H](O)[C@@H]3O)OC(=O)[C@]34CCC(C)(C)C[C@H]3C3=CC[C@@H]5[C@@]6(C)C[C@H](O)[C@H](O[C@@H]7O[C@H](CO)[C@@H](O)[C@H](O)[C@H]7O[C@@H]7O[C@H](COC(=O)C[C@](C)(O)CC(=O)O[C@@H]1[C@@H](O[C@@H]1OC[C@@H](O)[C@H](O)[C@H]1O)[C@H]2O)[C@@H](O)[C@H](O)[C@H]7O)[C@@](C)(CO)[C@@H]6CC[C@@]5(C)[C@]3(C)C[C@H]4O
LD50 [16]: 15 mg/kg
